Key:
[1] = biological target: T1, rat sodium/iodide symporter (Rattus norvegicus, UniProt Q63008)
T1 sequence (Q63008 1-618): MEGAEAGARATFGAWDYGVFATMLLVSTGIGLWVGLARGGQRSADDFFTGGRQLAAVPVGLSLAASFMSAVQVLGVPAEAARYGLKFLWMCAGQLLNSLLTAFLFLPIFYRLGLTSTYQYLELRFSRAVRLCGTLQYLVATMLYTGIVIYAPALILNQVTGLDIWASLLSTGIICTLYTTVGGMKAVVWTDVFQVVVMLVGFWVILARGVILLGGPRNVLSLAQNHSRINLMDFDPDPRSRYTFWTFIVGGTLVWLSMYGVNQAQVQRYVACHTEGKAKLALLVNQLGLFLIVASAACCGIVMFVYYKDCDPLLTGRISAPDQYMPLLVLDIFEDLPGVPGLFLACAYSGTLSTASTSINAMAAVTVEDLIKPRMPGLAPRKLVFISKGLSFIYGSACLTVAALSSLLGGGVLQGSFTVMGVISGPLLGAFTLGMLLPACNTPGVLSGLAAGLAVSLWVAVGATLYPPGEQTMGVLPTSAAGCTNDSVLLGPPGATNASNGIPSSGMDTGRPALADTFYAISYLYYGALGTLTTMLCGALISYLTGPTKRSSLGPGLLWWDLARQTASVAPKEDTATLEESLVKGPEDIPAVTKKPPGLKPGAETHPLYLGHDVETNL
Method: Transcripts were injected into oocytes and oocytes were assayed for perchlorate-sensitive Na^+/I^− symport activity as described in Weiss, et al., supra.
Control assays were carried out in oocytes microinjected with water (lane-1). Na^+-dependence was ascertained by using choline in place of Na^+, and perchlorate sensitivity was tested by conducting assays in the presence of both Na+ and perchlorate.

[2] = biological target: T1, rat sodium/iodide symporter; test: Iodide accumulation in COS cells transfected with sodium/iodide symporter cDNA; format: cell-based; set-up: Beginning with Met at position 1, a long open reading frame codes for a protein of 618 amino acids; expressed in transfected cells; host or cells: Xenopus laevis oocytes microinjected with cRNA transcribed in vitro (T7 RNA polymerase) from the cDNA clone in pSPORT; settings: COS cells transfected with symporter cDNA clone, assayed 48 h after transfection
Method: In FIG. 1A oocytes were microinjected with water (lane 1), 50 ng mRNA from FRTL-5 cells (lane 2), or approximately 20 ng cRNA transcripts made in vitro from pools containing the indicated number of cDNA clones (lanes 3-7, numbers without parentheses at bottom of FIG. 1A). […] Inset: Double reciprocal plot. […] Each point represents the average of triplicate determinations+/−SE.
A directional cDNA library was prepared in the PSPORT (BRL) vector from poly A^+ RNA isolated from FRTL-5 cells. cRNAs were synthesized in vitro using T7 RNA polymerase in the presence of m^7 GpppG from pools of cDNA clones. Transcripts were injected into oocytes and oocytes were assayed for perchlorate-sensitive Na^+/I^− symport activity as described in Weiss, et al., supra.

| Compound | generated iodide concentration gradient ([1]; 50 μM iodide in transport solution, functional volume 0.5 μl/oocyte) [fold] | Na+/I- symport activity in the presence of perchlorate ([1]; assayed in the presence of both Na+ and perchlorate, 45 min) | perchlorate sensitivity of Na+/I- symport activity [2] |
| --- | --- | --- | --- |
| I [iodide] | > 30 | – | – |
| [O-][Cl+3]([O-])([O-])O [perchlorate] | – | virtually indistinguishable from background | perchlorate-sensitive |
